# From patent US5023084A, “Transdermal estrogen/progestin dosage unit, system and process” (Rutgers, The State University of New Jersey, priority 1988, dated 1991)
# Experiment: Permeation of estradiol and levonorgestrel across adult male human cadaver skin
# Assay type: in vitro ADME
# Details: not given
# Description: Layer 2 contains levonorgestrel and layer 4 contains 17-beta-estradiol.
# The primary and secondary enhancing agents are incorporated into levonorgestrel containing layer 2. The amounts of primary and secondary enhancing agents specified in Table 16 are used in making dosage units.
# Permeation rates (mcg/sq. cm/hr±S.D.) are determined using the in vitro procedure of Y. W. Chien et al. identified in Example 1 using human cadaver skin.
Estradiol/Levonorgestrel Rate/Ratio,"Permeation Rate, Estradiol","Permeation Rate, Levonorgestrel",Structure (SMILES)
1.0 (0.07),0.18 (0.024) mcg/sq. cm/hr,0.182 (0.029) mcg/sq. cm/hr,CC(=O)Oc1c(C)c(C)c2c(c1C)CCC(C)(CCCC(C)CCCC(C)CCCC(C)C)O2 (racemic) [dl-alpha-Tocopherol Acetate]
1.5 (0.11),0.21 (0.040) mcg/sq. cm/hr,0.141 (0.019) mcg/sq. cm/hr,"CC1=C(/C=C/C(C)=C/C=C/C(C)=C/CO)C(C)(C)CCC1 [Retinol, retinol]"
1.6 (0.10),0.20 (0.031) mcg/sq. cm/hr,0.127 (0.021) mcg/sq. cm/hr,Cc1c(C)c2c(c(C)c1O)CCC(C)(CCCC(C)CCCC(C)CCCC(C)C)O2 (racemic) [dl-alpha-Tocopherol]
1.0 (0.13),0.18 (0.030) mcg/sq. cm/hr,0.176 (0.027) mcg/sq. cm/hr,"CCCCCCCCCCCCCCCC(=O)OC/C=C(C)/C=C/C=C(C)/C=C/C1=C(C)CCCC1(C)C [Retinyl Palmitate, retinyl palmitate]"
1.4 (0.16),0.22 (0.033) mcg/sq. cm/hr,0.159 (0.024) mcg/sq. cm/hr,"CC1=C(/C=C/C(C)=C/C=C/C(C)=C/C(=O)O)C(C)(C)CCC1 [Retinoic Acid, retinoic acid]"

Structure (SMILES),Estradiol/Levonorgestrel Rate/Ratio,"Permeation Rate, Estradiol","Permeation Rate, Levonorgestrel"
"CCCCCCCCCCO [n-Decyl Alcohol, n-decyl alcohol]",2.4 (0.21),–,–

# Same assay, conditions: dosage unit with […] W/W n-decyl alcohol, with or without 5.0% secondary enhancer; S.D. in parentheses
Structure (SMILES),"Permeation Rate, Estradiol","Permeation Rate, Levonorgestrel"
"CCCCCCCCCCO [n-Decyl Alcohol, n-decyl alcohol]",0.19 (0.031) mcg/sq. cm/hr,0.080 (0.017) mcg/sq. cm/hr

# Experiment: not given
# Details: oral; cited from earlier work
row,Structure (SMILES),17-beta-estradiol destroyed when taken orally
1,C[C@]12CC[C@@H]3c4ccc(O)cc4CC[C@H]3[C@@H]1CC[C@@H]2O [17-beta-estradiol],over 90%
